ChEMBL document CHEMBL5260799, “Pterocarpan scaffold: A natural lead molecule with diverse pharmacological properties” (Eur J Med Chem, 2017)
In brackets after ≈: the same amount, converted by molar mass.

Experiments:
[1] = Cytotoxicity activity against human Lucena 1 cells assessed as reduction in cell viability […] measured after 72 hrs by MTT assay; assay type: functional, cell-based; conditions: Lucena 1, 72 h
[2] = system: K562; test: Cytotoxicity activity against human K562 cells assessed as reduction in cell viability […] measured after 72 hrs by MTT assay; assay type: functional, cell-based; conditions: K562, 72 h
[3] = system: Streptococcus agalactiae; test: Antibacterial activity against Streptococcus agalactiae ATCC 12386 assessed as reduction in bacterial growth by microbroth dilution method; assay type: functional
[4] = system: Plasmodium falciparum; test: Antiplasmodial activity against Plasmodium falciparum K1 assessed as reduction in parasite growth by fluorescence based assay; assay type: functional, organism-based
[5] = system: Breast carcinoma cell; test: Cytotoxicity against human Breast carcinoma cell assessed as reduction in cell viability by colorimetric assay; assay type: functional, cell-based
[6] = system: KB; test: Cytotoxicity against human KB cells assessed as reduction in cell viability by colorimetric assay; assay type: functional, cell-based
[7] = system: Mycobacterium tuberculosis; test: Antimycobacterial activity against Mycobacterium tuberculosis H37Rv assessed as inhibition of bacterial growth by Microplate alamar blue assay; assay type: functional, organism-based
[8] = system: MCF7; test: Antiproliferative activity against human MCF7 cells assessed as inhibition of cell proliferation incubated for 72 hrs by MTT assay; assay type: functional, cell-based; conditions: MCF7, 72 h
[9] = system: KB; test: Antiproliferative activity against human KB cells assessed as reduction in cell viability after 72 hrs by SRB assay; assay type: functional
[10] = Inhibition of melanin in human melanocyte; assay type: functional, cell-based
[11] = system: RAW264.7; test: Antiinflammatory activity in mouse RAW264.7 cells assessed as inhibition of LPS-induced NO production at 50 uM measured after 24 hrs by Griess method; assay type: functional, cell-based; conditions: RAW264.7, 24 h
[12] = system: A2780; test: Antiproliferative activity against human A2780 cells assessed as reduction in cell viability incubated for 96 hrs by MTT assay; assay type: functional, cell-based; conditions: A2780, 96 h
[13] = system: BMDC; test: Anti-inflammatory activity against LPS-induced C57BL/6 mouse BMDC cells assessed as inhibition of IL-12 production at 25 uM by ELISA method; assay type: functional; set-up: scale not given: the % may be the effect or the level left
[14] = system: Staphylococcus aureus; test: Antibacterial activity against Staphylococcus aureus ATCC 25923 assessed as bacterial growth inhibition by broth dilution method; assay type: functional, organism-based
[15] = system: Staphylococcus aureus; test: Antibacterial activity against methicillin-resistant Staphylococcus aureus ATCC 25923 assessed as bacterial growth inhibition by broth dilution method; assay type: functional, organism-based
[16] = system: Staphylococcus aureus; test: Antibacterial activity against methicillin-resitant Staphylococcus aureus N1 assessed as reduction in bacterial growth by microbroth dilution method; assay type: functional
[17] = system: Staphylococcus aureus; test: Antibacterial activity against methicillin-resistant Staphylococcus aureus assessed as bacterial growth inhibition; assay type: functional, organism-based
[18] = system: HL-60; test: Antiproliferative activity against human HL-60 cells assessed as reduction in cell viability at 12.5 ug/ml by tryphan blue staining assay; assay type: functional; conditions: dose 12.5 µg/ml
[19] = species: Mus musculus; test: Reduction in hepatic steatosis in HFD-induced C57BL/6J mouse model assessed as reduction in serum LDL level […]; assay type: functional, organism-based
[20] = system: CCRF-CEM; test: Cytotoxicity against human CCRF-CEM cells assessed as reduction in cell viability incubated for 72 hrs by MTT assay; assay type: functional, cell-based
[21] = system: DLD-1; test: Cytotoxicity against human DLD-1 cells assessed as reduction in cell proliferation incubated for 24 hrs by MTT assay; assay type: functional, cell-based; conditions: DLD-1, 24 h
[22] = system: HeLa; test: Cytotoxicity against human HeLa cells assessed as reduction in cell proliferation incubated for 24 hrs by MTT assay; assay type: functional, cell-based
[23] = system: Plasmodium falciparum; test: Antiplasmodial activity against Plasmodium falciparum D6 assessed as reduction in plasmodial growth after 48 hrs by fluorescence based analysis; assay type: functional, organism-based; conditions: D6, 48 h
[24] = system: Plasmodium falciparum; test: Antiplasmodial activity against Plasmodium falciparum W2 assessed as reduction in plasmodial growth after 48 hrs by fluorescence based analysis; assay type: functional, organism-based; conditions: W2, 48 h
[25] = biological target: Neuraminidase (Influenza A virus, UniProt B4URF0); test: Inhibition of Influenza A virus H5N1 neuraminidase
[26] = Cytotoxicity against mouse RAW264.7 cells assessed as increase in NO production measured after 48 hrs by MTT assay; assay type: toxicity, cell-based

Chain of Neuraminidase (B4URF0 whole entry): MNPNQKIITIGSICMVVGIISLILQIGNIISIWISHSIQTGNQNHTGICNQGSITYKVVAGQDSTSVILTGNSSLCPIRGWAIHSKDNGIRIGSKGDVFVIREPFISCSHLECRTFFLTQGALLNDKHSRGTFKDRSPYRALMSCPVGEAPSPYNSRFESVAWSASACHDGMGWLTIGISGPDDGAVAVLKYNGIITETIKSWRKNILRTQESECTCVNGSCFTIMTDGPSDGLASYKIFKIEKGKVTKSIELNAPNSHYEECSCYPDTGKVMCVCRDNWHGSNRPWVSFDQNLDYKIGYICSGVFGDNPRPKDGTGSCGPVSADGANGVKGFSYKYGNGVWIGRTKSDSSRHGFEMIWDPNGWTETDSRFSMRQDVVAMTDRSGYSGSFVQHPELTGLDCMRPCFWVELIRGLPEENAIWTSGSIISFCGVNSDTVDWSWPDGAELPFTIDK

## O=C1C2=C(C(=O)c3ccccc31)[C@H]1Oc3cc(OCc4ccccc4)c(OCc4ccccc4)cc3[C@H]1CO2
[1]
  IC50: 3.64 µM
[2]
  IC50: 3.46 µM

## CC(C)=CCc1cc2c(cc1O)OC[C@H]1c3ccc(O)c(CC=C(C)C)c3O[C@@H]21 [ERYBRAEDIN C]
[3]
  MIC: 0.78 µg/mL (≈ 1.99 µM)
[4]
  IC50: 5.5 µg/mL (≈ 14 µM)
[5]
  IC50: 2.9 µg/mL (≈ 7.39 µM)
[6]
  IC50: 5.1 µg/mL (≈ 13 µM)
[7]
  IC50: 50 µg/mL (≈ 127 µM)

## COc1cc2c(cc1O)C1COC3C(=O)c4ccccc4C(=O)C3C1O2 (centres undefined)
[8]
  IC50: 7.8 µM

## CC(C)=CC[C@]12COc3c(cc(O)c4c3C=CC(C)(C)O4)[C@H]1Oc1cc3c(cc12)OCO3
[9]
  Activity: 56%

## C=C/C(C)=C/c1c(O)ccc2c1OC[C@H]1c3cc(C)c(O)c(CC=C(C)C)c3O[C@@H]21
[10]
  IC50: 1.52 µM

## COc1c(O)cc2c(c1CC=C(C)C)O[C@H]1c3ccc(O)cc3OC[C@@H]21
[10]
  IC50: 1.44 µM

## CC/C=C/OC[C@H]1O[C@H](Oc2ccc3c(c2)OC[C@H]2c4ccc(OC)c(OC)c4O[C@@H]32)[C@H](O)[C@@H](O)[C@@H]1O
[11]
  EC50: 19.2 µM

## COc1cc2c(cc1O)OC1C2COC2C(=O)c3ccccc3C(=O)C21 (centres undefined)
[8]
  IC50: 5.3 µM

## C=C(C)[C@H]1Cc2cc3c(cc2O1)OC[C@@H]1c2ccc(OC)c(O)c2O[C@H]31
[12]
  IC50: 23.2 µM

## COc1ccc2c(c1OC)OC1c3ccc(O[C@H]4O[C@H](CO)[C@@H](O)[C@H](O)[C@H]4O)cc3OCC21 (some centres undefined)
[13]
  Activity: 10%

## O=C1c2ccccc2C(=O)C2C1OCC1c3cc(O)c(O)cc3OC12 (centres undefined)
[8]
  IC50: 115 µM

## COc1cc2c(cc1OCc1ccccc1)C1COC3C(=O)c4ccccc4C(=O)C3C1O2 (centres undefined)
[8]
  IC50: > 100 µM

## COc1ccc2c(c1CC=C(C)C)O[C@H]1c3ccc(C)cc3OC[C@@]21O
[14]
  IC50: 64 µg/mL (≈ 182 µM)
[15]
  IC50: 64 µg/mL (≈ 182 µM)

## CC(C)=CCc1cc2c(cc1O)OCc1c-2oc2c(CC=C(C)C)c(O)ccc12 [ERYCRYSTAGALLIN]
[16]
  MIC: 0.78 µg/mL (≈ 2 µM)
[17]
  IC50: 6.25 µg/mL (≈ 16 µM)

## O=C1C2=C(C(=O)c3ccccc31)[C@H]1Oc3cc4c(cc3[C@H]1CO2)OCO4
[1]
  IC50: 5.47 µM
[2]
  IC50: 4.63 µM

## COc1ccc2c(c1)O[C@@H]1c3ccc(OC)cc3OC[C@H]21
[18]
  Activity: 52.5%

## CC(C)(O)c1cc2cc3c(cc2o1)OC[C@@]1(O)c2ccc(O)cc2O[C@@H]31
[19]
  IC50: 19.8 µM

## COc1ccc2c(c1CC=C(C)C)O[C@H]1c3ccc(O)cc3OC[C@@]21O [ERYTHRABYSSIN I]
[20]
  IC50: 3.36 µM

## COc1cc2c(cc1O)[C@@H]1Oc3c(cc(OC)c(OC)c3O)[C@@H]1CO2 [BRANDISIANIN F]
[21]
  IC50: > 25 µM
[22]
  IC50: > 25 µM

## O=C1c2ccccc2C(=O)C2C1OCC1c3cc(OCc4ccccc4)c(OCc4ccccc4)cc3OC12 (centres undefined)
[8]
  IC50: > 100 µM

## COc1ccc2c(c1OC)OC1c3ccc(O)cc3OCC21 (centres undefined)
[13]
  Activity: 45%

## C=C(CO)[C@H]1Cc2cc3c(cc2O1)OC[C@H]1c2cc4c(cc2O[C@@H]31)OCO4
[12]
  IC50: > 54.4 µM

## COc1cc(Br)c2c(c1CC=C(C)C)O[C@H]1c3ccc(O)cc3OC[C@@H]21
[23]
  IC50: 12.9 µg/mL

## COc1ccc2c(c1)OC[C@H]1c3cc(O)c(OC)c(CC=C(C)C)c3O[C@@H]21 [LESPEFLORIN G8]
[10]
  IC50: 1.63 µM

## CC(C)=CCc1cc2c(cc1O)OC1c3ccc(O)cc3OCC21 (centres undefined)
[20]
  IC50: 3.73 µM

## COc1cc2c(cc1O)O[C@@H]1C3=C(OC[C@H]21)C(=O)c1ccccc1C3=O
[1]
  IC50: 4.49 µM
[2]
  IC50: 4.5 µM

## CC(C)=CCc1cc2c(cc1O)OC[C@H]1c3c4c(c(O)c(CC=C(C)C)c3O[C@@H]21)OC(C)(C)CC4
[10]
  IC50: 0.4 µM

## CC(C)=CCc1c(O)c(C)cc2c1O[C@H]1c3cc4c(cc3OC[C@@H]21)OC(C)(C)C=C4 [LESPECYRTIN E5]
[10]
  IC50: 1.5 µM

## CC1(C)C=Cc2cc3c(cc2O1)OCC1c2ccc(O)cc2OC31 (centres undefined)
[24]
  IC50: 17 µM
[23]
  IC50: 19.4 µM

## COc1cc2c(cc1OCc1ccccc1)OC1C2COC2C(=O)c3ccccc3C(=O)C21 (centres undefined)
[8]
  IC50: 27.7 µM

## COc1ccc2c(c1CC=C(C)C)O[C@H]1c3ccc(O)cc3OC[C@@]21OC [ERYTHRIBYSSIN A]
[14]
  IC50: 64 µg/mL (≈ 174 µM)
[15]
  IC50: 32 µg/mL (≈ 86.9 µM)

## COc1ccc2c(c1)O[C@@H]1c3ccc(O)c(O)c3OC[C@H]21
[18]
  Activity: 72.1%

## COc1ccc2c(c1)O[C@@H]1c3ccc(O)cc3OC[C@H]21
[18]
  Activity: 57.4%

## C=C(C)[C@@H]1Cc2cc3c(cc2O1)OC[C@@]1(O)c2ccc(O)cc2O[C@@H]31 [GLYCEOLLIN III]
[19]
  IC50: 45 µM

## O=c1oc2cc(O)ccc2c2oc3cc(O)ccc3c12 [COUMESTROL]
[19]
  IC50: 0.9 µM
[25]
  IC50: 37.8 µM

## COc1cc2c(cc1O)[C@H]1COC3=C(C(=O)c4ccccc4C3=O)[C@H]1O2
[1]
  IC50: 2.57 µM

## COc1ccc2c(c1OC)O[C@H]1c3ccc(O[C@H]4O[C@H](COC(C)=O)[C@@H](O)[C@H](O)[C@H]4O)cc3OC[C@@H]21
[11]
  EC50: 28.7 µM

## COc1ccc2c(c1)OCc1c-2oc2c3c(c(O)cc12)OC(C)(C)C=C3 [LESPEFLORIN H2]
[10]
  IC50: 1.48 µM

## O=C1c2ccccc2C(=O)C2C1OCC1c3cc4c(cc3OC12)OCO4 (centres undefined)
[8]
  IC50: 29 µM

## COc1ccc2c(c1CC=C(C)C)O[C@H]1c3cc(CC=C(C)C)c(O)cc3OC[C@@]21O [ERYSTAGALLIN A]
[16]
  MIC: 0.78 µg/mL (≈ 1.85 µM)
[4]
  IC50: 3.8 µg/mL (≈ 8.99 µM)
[7]
  IC50: 12.5 µg/mL (≈ 29.6 µM)

## CC(=O)/C(C)=C/c1c(O)ccc2c1O[C@H]1c3ccc(O)cc3OC[C@@H]21
[26]
  IC50 at 48 h: 19 µM

## COc1cc2c(cc1CC=C(C)C)[C@@H]1Oc3cc(O)ccc3[C@@H]1CO2
[17]
  IC50: 6.25 µg/mL (≈ 18.5 µM)

## COc1ccc2c(c1OC)O[C@H]1c3ccc(O[C@H]4O[C@H](CO)[C@@H](O)[C@H](O)[C@H]4O)cc3OC[C@@H]21
[11]
  EC50: 14.7 µM

## COc1ccc2c(c1CC=C(C)C)O[C@H]1c3ccc(OC(C)=O)cc3OC[C@@H]21
[23]
  IC50: 34.8 µg/mL
